Molecules are shown by their SMILES.

Results on 8 compounds are retold here after publication PMC4151304 (European journal of medicinal chemistry, 2012).

For assay [1], the target named is T1, PRMT1 (Rattus norvegicus, UniProt Q63009). The assay is described as follows: Radioactive methyltransferase assay, PRMT1. It counts as biochemical. The following applies: for IC50: IC50, His6x-PRMT1 0.05 μM, 2 μM H4(1-20), 5 μM [14C]-SAM, 30°C.
The target in the next assay is T2, PRMT4/CARM1 (Mus musculus, UniProt Q9WVG6).
T2 sequence (Q9WVG6 1-608): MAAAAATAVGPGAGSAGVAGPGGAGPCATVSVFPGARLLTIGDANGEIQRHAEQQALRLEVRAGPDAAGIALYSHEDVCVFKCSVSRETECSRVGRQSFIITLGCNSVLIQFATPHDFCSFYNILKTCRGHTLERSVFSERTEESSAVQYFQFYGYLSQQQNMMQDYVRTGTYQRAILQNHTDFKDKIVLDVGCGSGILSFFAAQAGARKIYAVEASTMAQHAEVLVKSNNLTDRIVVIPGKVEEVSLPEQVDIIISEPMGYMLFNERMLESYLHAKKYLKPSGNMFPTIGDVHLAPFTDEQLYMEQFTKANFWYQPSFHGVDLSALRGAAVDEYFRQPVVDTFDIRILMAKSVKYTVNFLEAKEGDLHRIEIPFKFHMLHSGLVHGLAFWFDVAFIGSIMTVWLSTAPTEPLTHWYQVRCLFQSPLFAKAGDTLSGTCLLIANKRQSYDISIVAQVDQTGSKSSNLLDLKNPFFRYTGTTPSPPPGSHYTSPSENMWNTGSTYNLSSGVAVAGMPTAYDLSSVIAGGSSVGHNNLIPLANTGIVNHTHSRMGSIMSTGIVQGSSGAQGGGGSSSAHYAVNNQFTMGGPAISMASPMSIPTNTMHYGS
Briefly: Radioactive methyltransferase assay, CARM1. It counts as biochemical.

Assay [2] deals with T1, PRMT1. The assay is described as follows: Dialysis experiment and time-dependent inhibition. It counts as biochemical. The following applies: dialysis and time-dependent inhibition (0, 1.5, 2.5, 4.0 μM).
Another assay concerns the target PRMT1 Y152A (Rattus norvegicus, UniProt Q63009, Y152A). The assay is described as follows: Radioactive methyltransferase assay, PRMT1 mutant Y152A. The following applies: 4 μM inhibitor, 2 μM H4-20, 5 μM [14C]AdoMet. It counts as biochemical.
Another assay concerns HeLa cells. Briefly: Cell cycle assay by flow cytometry. The following applies: 48 h of treatment at 2.5 and 5 μM (data not shown). It counts as cell-based.

T1 sequence (Q63009 whole entry): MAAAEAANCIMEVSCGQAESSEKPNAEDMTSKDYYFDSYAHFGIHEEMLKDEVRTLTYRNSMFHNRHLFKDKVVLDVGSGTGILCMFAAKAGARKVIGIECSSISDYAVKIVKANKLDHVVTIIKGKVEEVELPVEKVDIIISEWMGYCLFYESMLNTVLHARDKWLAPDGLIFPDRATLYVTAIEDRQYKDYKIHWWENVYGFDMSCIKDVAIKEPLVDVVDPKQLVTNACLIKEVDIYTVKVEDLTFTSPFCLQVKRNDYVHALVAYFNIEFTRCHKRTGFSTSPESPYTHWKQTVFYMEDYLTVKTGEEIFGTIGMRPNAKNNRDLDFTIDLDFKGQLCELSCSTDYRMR
Chain of PRMT1 Y152A (Q63009 whole entry Y152A): as the sequence (Q63009 whole entry) above, with Y152A counted along it

Regarding `CCCCn1/c(=C\C=C\C2=[N+](CCCC)c3cccc4cccc2c34)c2cccc3cccc1c32` [compound 12, 1-butyl-2-[3-(1-butyllbenz[c,d]indol-2(1H)-ylidene)-1-propen-1-yl]-iodide], on PRMT1 [1], the half-inhibitory concentration (IC50) was 12 ± 0.5 µM.

As for `CCn1/c(=C\C=C\C2=[N+](CC)c3cccc4cccc2c34)c2cccc3cccc1c32.[I-]` [compound 11, 1-ethyl-2-[3-(1-ethylbenz[c,d]indol-2(1H)-ylidene)-1-propen-1-yl]-iodide], the “kinetic pattern of inhibition” value at PRMT1 [1] (steady-state kinetics, with regard to both H4 and AdoMet substrates) is “noncompetitive inhibitor”. Further, the 50% inhibitory concentration (IC50) at PRMT4/CARM1 is approximately 100 µM. At PRMT1 [2], the “reversible vs irreversible inhibition” value is “reversible”. For the same compound, the “inhibition of Y152A PRMT1 compared with wt-PRMT1” value at PRMT1 Y152A was “same potency as is for wt-PRMT1”. In the assay on HeLa cells, the “Sub-G1 population, indicative of apoptosis” value is given as “appearance of a hypodiploid peak (Sub-G1) was observed”.

As to `CCCCN1/C(=C\C=C\C2=[N+](CCCC)c3ccc4ccccc4c3C2(C)C)C(C)(C)c2c1ccc1ccccc21` [compound 26], the IC50 at PRMT1 [1] came to 18 ± 0.5 µM.

For the compound `CC1(C)C(/C=C/C=C2/N(CCCc3ccccc3)c3ccc4ccccc4c3C2(C)C)=[N+](CCCc2ccccc2)c2ccc3ccccc3c21` [compound 27], at PRMT1 [1], the IC50 amounted to 14.3 ± 0.2 µM.

For `CCN1/C(=C/C=C/C2=[N+](CC)c3ccc4ccccc4c3C2(C)C)C(C)(C)c2c1ccc1ccccc21` [compound 25], at PRMT1 [1], the 50% inhibitory concentration (IC50) is 20.3 ± 0.2 µM.

As to `CCN1/C(=C\C=C\C2=[N+](CC)c3ccccc3C2(C)C)C(C)(C)c2ccccc21` [compound 22], on PRMT1 [1], the IC50 came to 284 ± 3.5 µM.

In the case of `C(/C=C/C1=[N+](CCCc2ccccc2)c2cccc3cccc1c23)=c1\c2cccc3cccc(c32)n1CCCc1ccccc1` [compound 13, 1-phenylpropyl-2-[3-(1-phenylpropylbenz[c,d]indol-2(1H)-ylidene)-1-propen-1-yl]iodide], at PRMT1 [1], the IC50 was 15.5 ± 0.2 µM.

As for `CC1(C)C(/C=C/C=C2/N(CCC[N+](C)(C)C)c3ccc(Br)cc3C2(C)C)=[N+](CCC[N+](C)(C)C)c2ccc(Br)cc21` [compound 29], the IC50 at PRMT1 [1] amounted to 292 ± 40.1 µM.

In general, IC50 refers to the point on the concentration scale where inhibition reaches its midpoint.
